Consider four compounds from patent publication US20250073249A1, “STEROID COMPOUND, AND PREPARATION METHOD THEREFOR AND USE THEREOF” (SHANGHAI INSTITUTE OF MATERIA MEDICA, CHINESE ACADEMY OF …, priority 2022, published 2025).

In one experiment the target is T1, wild-type AR (Homo sapiens, UniProt P10275).
T1 construct: expressed in transfected cells; host or cells: HEK293
T1 sequence (P10275 1-920): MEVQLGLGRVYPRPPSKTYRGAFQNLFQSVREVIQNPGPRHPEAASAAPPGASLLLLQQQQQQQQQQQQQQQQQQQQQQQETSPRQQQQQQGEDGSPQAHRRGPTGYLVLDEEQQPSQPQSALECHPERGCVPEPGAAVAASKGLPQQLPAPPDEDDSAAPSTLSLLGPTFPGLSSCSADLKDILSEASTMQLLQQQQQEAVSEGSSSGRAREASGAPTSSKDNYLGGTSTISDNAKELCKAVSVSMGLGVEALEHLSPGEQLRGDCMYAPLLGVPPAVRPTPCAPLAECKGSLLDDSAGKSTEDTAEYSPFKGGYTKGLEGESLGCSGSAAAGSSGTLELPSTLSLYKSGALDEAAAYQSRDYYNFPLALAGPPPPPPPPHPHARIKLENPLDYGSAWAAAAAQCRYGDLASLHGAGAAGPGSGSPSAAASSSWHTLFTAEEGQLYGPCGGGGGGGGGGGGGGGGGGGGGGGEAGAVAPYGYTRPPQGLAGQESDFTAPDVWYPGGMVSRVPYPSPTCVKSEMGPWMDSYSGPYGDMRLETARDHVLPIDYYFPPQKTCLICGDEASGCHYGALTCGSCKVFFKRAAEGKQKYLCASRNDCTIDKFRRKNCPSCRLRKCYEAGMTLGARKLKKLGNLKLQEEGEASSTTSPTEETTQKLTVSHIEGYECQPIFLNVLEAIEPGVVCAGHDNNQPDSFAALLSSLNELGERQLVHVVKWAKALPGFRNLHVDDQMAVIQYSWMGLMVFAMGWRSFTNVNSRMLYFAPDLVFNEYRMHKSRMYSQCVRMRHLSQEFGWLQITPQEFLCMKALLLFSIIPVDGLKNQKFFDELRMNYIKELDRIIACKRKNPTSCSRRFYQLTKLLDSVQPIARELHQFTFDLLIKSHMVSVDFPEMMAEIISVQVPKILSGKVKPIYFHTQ
Kind of experiment: Wild-type AR antagonist activity test (luciferase reporter in HEK293 cells). The class given is cell-based. The note with it: for IC50: HEK293 cells, luciferase expression, DHT 1.5 nM, 24 hours; for AR antagonist activity, times higher than that of the control enzalutamide: ratio to enzalutamide IC50. The protocol: HEK293 cells were cultured in DMEM containing 10% fetal bovine serum (FBS) at 37° C. with 5% CO2. The cells were then digested with trypsin and counted. A 10 μL/well transfection solution was prepared in opti-MEM containing 5 ng androgen receptor clone, 100 ng pGL4.36 vector, and 315 nL fugene. […] The diluted cell suspension was seeded into 96-well plates at 90 μL (40,000 cells/well), and the plates were incubated for 24 hours. Then, 10 μL of drug solution (including gradient diluted compounds or DMSO) was added, and the plates were incubated for 30 minutes. […] After 24 hours of incubation, 100 μL of Steady-Glo was added to each well of the plate, the plate was shaken at room temperature for 20 minutes, and read on an Envision.

The subject of a further experiment is LNCaP cells. The experiment can be described thus: In vitro LNCaP cell proliferation inhibition test (CellTiter-Glo). The note with it: for Maximum Inhibition (%) / IC50: 6 days; for IC50: Homo sapiens, read-out: Anti-proliferative activity IC50; for Anti-proliferative activity, fold improvement compared to abiraterone: ratio to abiraterone IC50. Type of experiment: cell-based. For orientation: In ATP-based viability assays light output follows the ATP content of the culture.

In the case of `Cc1cn(C2=CCC3C4CC=C5C[C@@H](NC(=O)c6ccc(F)cc6)CC[C@]5(C)C4CC[C@]23C)cn1` (stereo partly drawn) [Compound 33, N-((3S,10R,13S)-17-(4-methyl-1H-imidazol-1-yl)-10,13-dimethyl-2,3,4,7,8,9,10,11,12,13,14,15-dodecahydro-1H-cyclopenta[a]phenanthren-3-yl)-4-fluorobenzamide], at wild-type AR, the IC50 (usually the midpoint of a concentration-inhibition curve) was determined as 0.12 µM and the “AR antagonist activity, times higher than that of the control enzalutamide” value (“AR antagonist activity” below) is 3.6 times. Further, in the experiment on LNCaP cells, the “Maximum Inhibition (%)” value is 102.9% and the IC50 amounted to 0.478 µM. Besides, the “Anti-tumor activity and efficacy compared to enzalutamide” value with LNCaP cells (in words) is “comparable anti-tumor activity but significantly superior anti-tumor efficacy compared to enzalutamide”.

Take `Cc1cn(C2=CCC3C4CC=C5C[C@@H](NC(=O)c6ccc(S(C)(=O)=O)cc6)CC[C@]5(C)C4CC[C@]23C)cn1` (stereo partly drawn) [Compound 35, N-((3S,10R,13S)-17-(4-methyl-1H-imidazol-1-yl)-10,13-dimethyl-2,3,4,7,8,9,10,11,12,13,14,15-dodecahydro-1H-cyclopenta[a]phenanthren-3-yl)-4-(methylsulfonyl)benzamide]: the IC50 against wild-type AR stood at 0.433 µM; in the experiment with LNCaP cells it was 0.527 µM. For the same compound, the “Maximum Inhibition (%)” value in the experiment on LNCaP cells was found to be 96.85%.

For `Cc1cn(C2=CCC3C4CC=C5C[C@@H](NC(=O)c6ccc(F)cc6F)CC[C@]5(C)C4CC[C@]23C)cn1` (stereo partly drawn) [Compound 37, N-((3S,10R,13S)-17-(4-methyl-1H-imidazol-1-yl)-10,13-dimethyl-2,3,4,7,8,9,10,11,12,13,14,15-dodecahydro-1H-cyclopenta[a]phenanthren-3-yl)-2,4-difluorobenzamide], at wild-type AR, the concentration for half-maximal inhibition (IC50) amounted to 0.235 µM and the “AR antagonist activity” value is listed as 1.9 times. For the same compound, in the experiment with LNCaP cells, the “Maximum Inhibition (%)” value amounted to 95.85%; the IC50 was determined as 0.327 µM; the “Anti-proliferative activity, fold improvement compared to abiraterone” value stood at 8.6 fold.

As for `Cc1cn(C2=CCC3C4CC=C5C[C@@H](NC(=O)c6ccncc6)CC[C@]5(C)C4CC[C@]23C)cn1` (stereo partly drawn) [Compound 14, N-((3S,10R,13S)-10,13-dimethyl-17-(4-methyl-1H-imidazol-1-yl)-2,3,4,7,8,9,10,11,12,13,14,15-dodecahydro-1H-cyclopenta[a]phenanthren-3-yl)isonicotinamide], on wild-type AR, the half-maximal inhibitory concentration (IC50) came out at 0.247 µM and the “AR antagonist activity” value was determined as 1.8 times. Further, in the experiment on LNCaP cells, the “Maximum Inhibition (%)” value turned out to be 99.35%; the IC50 was 0.205 µM; the “Anti-proliferative activity, fold improvement compared to abiraterone” value came out at 15.8 fold.
